In patent US10010541B2, “Modulation of tissue transglutaminase activation in disease” (The Board of Trustees of the Leland Stanford Junior …, priority 2014, dated 2018):

Assays:
TG1 = target: T1, TG1 (Homo sapiens, UniProt P22735); test: glutamate dehydrogenase-coupled deamidation assay, substrate Cbz-Gln-Ser; assay type: biochemical; settings: irreversible inhibition model, full progress curves
T1 sequence (P22735 1-817): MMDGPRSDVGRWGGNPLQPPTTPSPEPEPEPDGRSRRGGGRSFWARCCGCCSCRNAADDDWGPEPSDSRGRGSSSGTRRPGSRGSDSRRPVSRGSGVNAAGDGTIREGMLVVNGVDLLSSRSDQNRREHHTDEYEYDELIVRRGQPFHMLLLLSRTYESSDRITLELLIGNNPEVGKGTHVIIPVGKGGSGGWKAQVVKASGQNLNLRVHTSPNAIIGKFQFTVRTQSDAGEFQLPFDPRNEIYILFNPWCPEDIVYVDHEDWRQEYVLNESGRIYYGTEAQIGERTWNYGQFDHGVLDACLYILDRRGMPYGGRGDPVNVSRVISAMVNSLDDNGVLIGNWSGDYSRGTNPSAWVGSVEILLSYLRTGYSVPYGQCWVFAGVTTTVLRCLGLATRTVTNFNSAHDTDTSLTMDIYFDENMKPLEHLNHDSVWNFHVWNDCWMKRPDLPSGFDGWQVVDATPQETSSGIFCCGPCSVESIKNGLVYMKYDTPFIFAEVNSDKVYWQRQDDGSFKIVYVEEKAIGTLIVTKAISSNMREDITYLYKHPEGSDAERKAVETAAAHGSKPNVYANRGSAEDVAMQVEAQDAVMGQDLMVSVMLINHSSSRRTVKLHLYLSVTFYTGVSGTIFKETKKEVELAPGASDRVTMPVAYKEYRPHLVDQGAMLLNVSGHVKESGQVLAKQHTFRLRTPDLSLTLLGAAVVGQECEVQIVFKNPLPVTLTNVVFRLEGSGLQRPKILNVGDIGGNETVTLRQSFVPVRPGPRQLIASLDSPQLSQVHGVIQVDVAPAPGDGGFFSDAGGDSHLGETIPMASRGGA

TG2 = target: T2, TG2 (Homo sapiens, UniProt P21980); test: glutamate dehydrogenase-coupled deamidation assay, substrate Cbz-Gln-Gly; assay type: biochemical; settings: irreversible inhibition model, full progress curves
T2 sequence (P21980 1-687): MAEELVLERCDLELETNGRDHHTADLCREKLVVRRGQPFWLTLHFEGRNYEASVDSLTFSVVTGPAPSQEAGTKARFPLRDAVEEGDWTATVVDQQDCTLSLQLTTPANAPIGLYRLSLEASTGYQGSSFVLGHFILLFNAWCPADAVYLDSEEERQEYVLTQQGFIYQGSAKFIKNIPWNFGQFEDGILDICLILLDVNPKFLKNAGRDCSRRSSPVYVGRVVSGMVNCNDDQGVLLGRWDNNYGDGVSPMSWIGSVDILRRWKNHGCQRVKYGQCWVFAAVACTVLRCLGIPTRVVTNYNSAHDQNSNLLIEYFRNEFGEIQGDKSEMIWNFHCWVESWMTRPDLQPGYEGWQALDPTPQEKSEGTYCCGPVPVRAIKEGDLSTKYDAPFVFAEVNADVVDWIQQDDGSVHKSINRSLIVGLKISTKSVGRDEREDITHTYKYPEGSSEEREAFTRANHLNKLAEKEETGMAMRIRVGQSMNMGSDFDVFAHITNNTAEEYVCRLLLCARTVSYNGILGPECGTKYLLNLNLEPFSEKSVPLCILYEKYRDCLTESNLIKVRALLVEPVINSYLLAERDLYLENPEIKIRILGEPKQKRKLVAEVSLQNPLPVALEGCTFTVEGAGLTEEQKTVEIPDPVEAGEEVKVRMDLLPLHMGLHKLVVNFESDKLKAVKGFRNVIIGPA

kinh/Ki TG1 (TG1)	kinh/Ki TG2 (TG2)	Structure (SMILES)
410 M⁻¹ s⁻¹	430 M⁻¹ s⁻¹	O=C(N[C@@H]1C[C@@H](C(=O)NC[C@@H]2CC(Br)=NO2)N(C(=O)OCc2cnc3ccccc3c2)C1)c1ccccc1 [Compound 1, (2S,4R)-quinolin-3-ylmethyl 4-benzamido-2-((((S)-3-bromo-4,5-dihydroisoxazol-5-yl)methyl)carbamoyl)pyrrolidine-1-carboxylate]
96.7 M⁻¹ s⁻¹	230 M⁻¹ s⁻¹	O=C(NC[C@@H]1CC(Br)=NO1)[C@@H]1C[C@@H](NC(=O)C2(C(=O)O)CCC2)CN1C(=O)OCc1cnc2ccccc2c1 [Compound 7, 1-(((3R,5S)-5-((((S)-3-bromo-4,5-dihydroisoxazol-5-yl)methyl)carbamoyl)-1-((quinolin-3-ylmethoxy)carbonyl)pyrrolidin-3-yl)carbamoyl)cyclobutanecarboxylic acid]
1100 M⁻¹ s⁻¹	810 M⁻¹ s⁻¹	O=C(NC[C@@H]1CC(Br)=NO1)[C@@H]1C[C@@H](c2ccccc2)CN1C(=O)OCc1cnc2ccccc2c1 [Compound 8, (2S,4S)-quinolin-3-ylmethyl 2-((((S)-3-bromo-4,5-dihydroisoxazol-5-yl)methyl)carbamoyl)-4-phenylpyrrolidine-1-carboxylate]
695 M⁻¹ s⁻¹	422 M⁻¹ s⁻¹	O=C(NC[C@@H]1CC(Br)=NO1)[C@@H]1C[C@@H](c2cccc(Cl)c2)CN1C(=O)OCc1cnc2ccccc2c1 [Compound 13, (2S,4S)-quinolin-3-ylmethyl 2-((((S)-3-bromo-4,5-dihydroisoxazol-5-yl)methyl)carbamoyl)-4-(3-chlorophenyl)pyrrolidine-1-carboxylate]
257 M⁻¹ s⁻¹	200 M⁻¹ s⁻¹	O=C(NC[C@@H]1CC(Br)=NO1)[C@@H]1C[C@@H](c2ccc(Cl)cc2)CN1C(=O)OCc1cnc2ccccc2c1 [Compound 14, (2S,4S)-quinolin-3-ylmethyl 2-((((S)-3-bromo-4,5-dihydroisoxazol-5-yl)methyl)carbamoyl)-4-(4-chlorophenyl)pyrrolidine-1-carboxylate]

The next lines start with the compound.

Structure (SMILES)	kinh/Ki TG1 (TG1)	kinh/Ki TG2 (TG2)
O=C(N[C@@H]1C[C@@H](C(=O)NC[C@@H]2CC(Br)=NO2)N(C(=O)OCc2cnc3ccccc3c2)C1)c1ccccc1O [Compound 2, (2S,4R)-quinolin-3-ylmethyl 2-((((S)-3-bromo-4,5-dihydroisoxazol-5-yl)methyl)carbamoyl)-4-(2-hydroxybenzamido)pyrrolidine-1-carboxylate]	452 M⁻¹ s⁻¹	618 M⁻¹ s⁻¹
O=C(N[C@@H]1C[C@@H](C(=O)NC[C@@H]2CC(Br)=NO2)N(C(=O)OCc2cnc3ccccc3c2)C1)c1cccc(O)c1 [Compound 3, (2S,4R)-quinolin-3-ylmethyl 2-((((S)-3-bromo-4,5-dihydroisoxazol-5-yl)methyl)carbamoyl)-4-(3-hydroxybenzamido)pyrrolidine-1-carboxylate]	302 M⁻¹ s⁻¹	603 M⁻¹ s⁻¹
O=C(N[C@@H]1C[C@@H](C(=O)NC[C@@H]2CC(Br)=NO2)N(C(=O)OCc2cnc3ccccc3c2)C1)c1ccc(O)cc1 [Compound 4, (2S,4R)-quinolin-3-ylmethyl 2-((((S)-3-bromo-4,5-dihydroisoxazol-5-yl)methyl)carbamoyl)-4-(4-hydroxybenzamido)pyrrolidine-1-carboxylate]	522 M⁻¹ s⁻¹	940 M⁻¹ s⁻¹
O=C(N[C@@H]1C[C@@H](C(=O)NC[C@@H]2CC(Br)=NO2)N(C(=O)OCc2cnc3ccccc3c2)C1)c1cnccn1 [Compound 6, (2S,4R)-quinolin-3-ylmethyl 2-((((S)-3-bromo-4,5-dihydroisoxazol-5-yl)methyl)carbamoyl)-4-(pyrazine-2-carboxamido)pyrrolidine-1-carboxylate]	200 M⁻¹ s⁻¹	262 M⁻¹ s⁻¹
O=C(NC[C@@H]1CC(Br)=NO1)[C@@H]1C[C@H](c2ccccc2)CN1C(=O)OCc1cnc2ccccc2c1 [Compound 9, (2S,4R)-quinolin-3-ylmethyl 2-((((S)-3-bromo-4,5-dihydroisoxazol-5-yl)methyl)carbamoyl)-4-phenylpyrrolidine-1-carboxylate]	287 M⁻¹ s⁻¹	295 M⁻¹ s⁻¹
O=C(NC[C@@H]1CC(Br)=NO1)[C@@H]1C[C@@H](c2ccccc2O)CN1C(=O)OCc1cnc2ccccc2c1 [Compound 10, (2S,4S)-quinolin-3-ylmethyl 2-((((S)-3-bromo-4,5-dihydroisoxazol-5-yl)methyl)carbamoyl)-4-(2-hydroxyphenyl)pyrrolidine-1-carboxylate]	492 M⁻¹ s⁻¹	563 M⁻¹ s⁻¹
O=C(NC[C@@H]1CC(Br)=NO1)[C@@H]1C[C@@H](c2cccc(O)c2)CN1C(=O)OCc1cnc2ccccc2c1 [Compound 11, (2S,4S)-quinolin-3-ylmethyl 2-((((S)-3-bromo-4,5-dihydroisoxazol-5-yl)methyl)carbamoyl)-4-(3-hydroxyphenyl)pyrrolidine-1-carboxylate]	645 M⁻¹ s⁻¹	870 M⁻¹ s⁻¹
O=C(NC[C@@H]1CC(Br)=NO1)[C@@H]1C[C@@H](c2ccc(O)cc2)CN1C(=O)OCc1cnc2ccccc2c1 [Compound 12, (2S,4S)-quinolin-3-ylmethyl 2-((((S)-3-bromo-4,5-dihydroisoxazol-5-yl)methyl)carbamoyl)-4-(4-hydroxyphenyl)pyrrolidine-1-carboxylate]	1510 M⁻¹ s⁻¹	1520 M⁻¹ s⁻¹
O=C(NC[C@@H]1CC(Br)=NO1)[C@@H]1C[C@@H](c2c[nH]c3ccc(F)cc23)CN1C(=O)OCc1cnc2ccccc2c1 [Compound 15, (2S,4S)-quinolin-3-ylmethyl 2-((((S)-3-bromo-4,5-dihydroisoxazol-5-yl)methyl)carbamoyl)-4-(5-fluoro-1H-indol-3-yl)pyrrolidine-1-carboxylate]	800 M⁻¹ s⁻¹	307 M⁻¹ s⁻¹
